Experimental data: PubChem BioAssay (NCI)
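Assay format: 96-well plates, 48-hour exposure. The concentration for 50% growth inhibition is given as GI50. Definition used: TGI = concentration required for complete inhibition of growth.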

What was measured:
Assay in all cases: inhibition of tumour cell growth, NCI panel, 48 h
[1] = system: 786-0 renal
[2] = system: A498 renal
[3] = system: A549 NSCLC
[4] = system: ACHN renal
[5] = system: BT-549 breast
[6] = system: CAKI-1 renal
[7] = system: CCRF-CEM leukemia
[8] = system: COLO 205 colon
[9] = system: DU-145 prostate
[10] = system: HCC-2998 colon
[11] = system: HCT-116 colon
[12] = system: HCT-15 colon
[13] = system: HL-60(TB) leukemia
[14] = system: HOP-62 NSCLC
[15] = system: HOP-92 NSCLC
[16] = system: HS 578T breast
[17] = system: IGROV1 ovarian
[18] = system: K-562 leukemia
[19] = system: KM12 colon
[20] = system: LOX IMVI melanoma
[21] = system: M14 melanoma
[22] = system: MALME-3M melanoma
[23] = system: MCF7 breast
[24] = system: MDA-MB-231 breast
[25] = system: MDA-MB-435
[26] = system: MOLT-4 leukemia
[27] = system: NCI-H226 lung
[28] = system: NCI-H23 lung
[29] = system: NCI-H460 lung
[30] = system: NCI-H522 lung
[31] = system: NCI/ADR-RES ovarian
[32] = system: OVCAR-3 ovarian
[33] = system: OVCAR-5 ovarian
[34] = system: OVCAR-8 ovarian
[35] = system: PC-3 prostate
[36] = system: RPMI-8226 leukemia
[37] = system: RXF 393 renal
[38] = system: SF-268 CNS
[39] = system: SF-295 CNS
[40] = system: SF-539 CNS
[41] = system: SK-MEL-2 melanoma
[42] = system: SK-MEL-28 melanoma
[43] = system: SK-MEL-5 melanoma
[44] = system: SK-OV-3 ovarian
[45] = system: SN12C renal
[46] = system: SNB-19 CNS
[47] = system: SNB-75 CNS
[48] = system: SR leukemia
[49] = system: SW-620 colon
[50] = system: T-47D breast
[51] = system: TK-10 renal
[52] = system: UACC-257 melanoma
[53] = system: UACC-62 melanoma
[54] = system: UO-31 renal

**Q.** Which results are given for `Nc1nc(N)c2c(n1)NC(c1sc(Cl)nc1Cl)CC(c1ccccc1)=N2` (stereo not drawn)?
**A.** GI50 [1]: 5.05 µM; TGI [1]: 19.2 µM; GI50 [2]: 1.28 µM; TGI [2]: 8.92 µM; GI50 [3]: 5.02 µM; TGI [3]: 19.4 µM; GI50 [4]: 4.56 µM; TGI [4]: 16.8 µM; GI50 [5]: 3.93 µM; TGI [5]: 16.1 µM; GI50 [6]: 3.28 µM; TGI [6]: 19.6 µM; GI50 [7]: 3.21 µM; TGI [7]: 16.9 µM; GI50 [8]: 4.18 µM; TGI [8]: 15.4 µM; GI50 [9]: 11.2 µM; TGI [9]: 24.2 µM; GI50 [10]: 10.3 µM; TGI [10]: 21.9 µM; GI50 [11]: 3.7 µM; TGI [11]: 13.9 µM; GI50 [12]: 3.05 µM; TGI [12]: 15.2 µM; GI50 [13]: 2.04 µM; TGI [13]: 8.22 µM; GI50 [14]: 3.72 µM; TGI [14]: 18 µM; GI50 [15]: 3.72 µM; TGI [15]: 18 µM; GI50 [16]: 2.44 µM; TGI [16]: 11.1 µM; GI50 [17]: 7.08 µM; TGI [17]: 23.4 µM; GI50 [18]: 1.68 µM; TGI [18]: 20.9 µM; GI50 [19]: 3.79 µM; TGI [19]: 15.3 µM; GI50 [20]: 5.39 µM; TGI [20]: 18.1 µM; GI50 [21]: 2.64 µM; TGI [21]: 10.4 µM; GI50 [22]: 6.33 µM; TGI [22]: 19.1 µM; GI50 [23]: 3.56 µM; TGI [23]: 20.4 µM; GI50 [24]: 3.86 µM; TGI [24]: 16.5 µM; GI50 [25]: 1.47 µM; TGI [25]: 10.2 µM; GI50 [26]: 4.06 µM; TGI [26]: 20.8 µM; GI50 [27]: 13.7 µM; TGI [27]: 35.1 µM; GI50 [28]: 8.23 µM; TGI [28]: 23.3 µM; GI50 [29]: 4.05 µM; TGI [29]: 14.6 µM; GI50 [30]: 3.27 µM; TGI [30]: 14.3 µM; GI50 [31]: 3.13 µM; TGI [31]: 12.4 µM; GI50 [32]: 3.6 µM; TGI [32]: 13.7 µM; GI50 [33]: 10.2 µM; TGI [33]: 21.9 µM; GI50 [34]: 4.8 µM; TGI [34]: 22.2 µM; GI50 [35]: 5.89 µM; TGI [35]: 24 µM; GI50 [36]: 4.99 µM; TGI [36]: 31.5 µM; GI50 [37]: 2.48 µM; TGI [37]: 9.5 µM; GI50 [38]: 5.68 µM; TGI [38]: 22.5 µM; GI50 [39]: 3.06 µM; TGI [39]: 13.3 µM; GI50 [40]: 2.69 µM; TGI [40]: 9.97 µM; GI50 [41]: 2.98 µM; TGI [41]: 10.9 µM; GI50 [42]: 4.26 µM; TGI [42]: 17.8 µM; GI50 [43]: 3.69 µM; TGI [43]: 13.9 µM; GI50 [44]: 3.6 µM; TGI [44]: 15.3 µM; GI50 [45]: 5.83 µM; TGI [45]: 18.5 µM; GI50 [46]: 5.15 µM; TGI [46]: 17.8 µM; GI50 [47]: 1.63 µM; TGI [47]: 7.59 µM; GI50 [48]: 2.25 µM; TGI [48]: 8.86 µM; GI50 [49]: 3.42 µM; TGI [49]: 13.3 µM; GI50 [50]: 3.35 µM; TGI [50]: 22.1 µM; GI50 [51]: 11.5 µM; TGI [51]: 24.1 µM; GI50 [52]: 6.77 µM; TGI [52]: 20.9 µM; GI50 [53]: 3.05 µM; TGI [53]: 13.9 µM; GI50 [54]: 3.04 µM; TGI [54]: 15.6 µM
